Measurements published in patent US8093394B2, “Derivatives of 5-thioxylopyranose and use of same for treatment” (Laboratoires Fournier S.A., priority 2006, dated 2012).

What follows are compounds tested on venous thrombosis (assay: venous thrombosis test in rats, activity via the oral route (venous stasis under hypercoagulation with factor Xa, Wessler technique)). Settings: dose 6 mg/kg, thrombosis induced 2 h after administration, male Wistar rats.
Format: in vivo
Description: The antithrombotic activity of the compounds according to the invention was studied in vivo in rats by virtue of a test in which a venous thrombosis is reproduced. The venous thrombosis was induced according to the protocol described in Thromb. Haemost., 1992, 67(1), 176-179. The activity via the oral route was studied according to the procedure described below. The experiment is carried out on non-fasting male Wistar rats weighing from 250 to 280 g and divided into groups of 10 animals each. The test products are administered orally (intubation) in solution or in suspension in a 0.5% solution of methylcellulose in water. The concentrations of the compounds are calculated so as to bring about the absorption of an amount of solution of 10 ml/kg orally. A thrombosis is induced at a time T after the administration of the product and the thrombus formed is removed and weighed. In order to induce this thrombosis, a venous stasis is brought about under hypercoagulation, according to the technique described by Wessler (J. Applied Physiol., 1959, 943-946), using a solution of activated factor X (Xa), supplied by Biogenic (Montpellier) and comprising a dose of 7.5 nKat/kg, as hypercoagulant. The venous stasis is brought about 10 seconds exactly after the injection of the hypercoagulant. The activity of the test compounds is monitored at various doses, after they have been administered. The thrombosis is induced 2 hours after the administration of the compound. By way of example, the results of the above tests are given in the following table for a few compounds according to the invention (the activity is expressed by the percentage of inhibition of the formation of the thrombus, observed in the presence of the compound according to the invention, with respect to the weight of the thrombus formed in the absence of the compound).

| SMILES | Activity (percentage of inhibition of the formation of the thrombus, with respect to the weight of the thrombus formed in the absence of the compound) [%] |
| --- | --- |
| Cn1cc(-c2ncc(O[C@@H]3SC[C@@H](O)[C@H](O)[C@H]3O)cc2F)cn1 [Example 224, 5-Fluoro-6-(1-methyl-1H-pyrazol-4-yl)-3-pyridinyl 5-thio-β-D-xylopyranoside] | 99 |
| O[C@@H]1[C@@H](O)[C@H](Oc2ccc(-c3cccs3)nc2)SC[C@H]1O [Example 108, 6-(2-Thienyl)-3-pyridinyl 5-thio-β-D-xylopyranoside] | 95 |
| O[C@@H]1[C@@H](O)[C@H](Oc2cncc(-c3ccc(Cl)nc3)c2)SC[C@H]1O [Example 30, 5-(6-Chloro-3-pyridinyl)-3-pyridinyl 5-thio-β-D-xylopyranoside] | 97 |
| O[C@@H]1[C@@H](O)[C@H](Oc2ccnc(-c3ccncc3)c2)SC[C@H]1O [Example 130, 2-(4-Pyridinyl)-4-pyridinyl 5-thio-β-D-xylopyranoside] | 91 |
| O[C@@H]1[C@@H](O)[C@H](Oc2ccc(-c3ccncc3)nc2Cl)SC[C@H]1O [Example 24, 2-Chloro-6-(4-pyridinyl)-3-pyridinyl 5-thio-β-D-xylopyranoside] | 96 |
| Cc1noc(C)c1-c1ncc(O[C@@H]2SC[C@@H](O)[C@H](O)[C@H]2O)cc1F [Example 226, 6-(3,5-Dimethyl-4-isoxazolyl)-5-fluoro-3-pyridinyl 5-thio-β-D-xylopyranoside] | 97 |
| O[C@@H]1[C@@H](O)[C@H](Oc2ccc(-c3cccnc3Cl)nc2)SC[C@H]1O [Example 40, 6-(2-Chloro-3-pyridinyl)-3-pyridinyl 5-thio-β-D-xylopyranoside] | 96 |
| Cc1oncc1-c1ccc(O[C@@H]2SC[C@@H](O)[C@H](O)[C@H]2O)cn1 [Example 140, 6-(5-Methyl-4-isoxazolyl)-3-pyridinyl 5-thio-β-D-xylopyranoside] | 96 |
| O[C@@H]1[C@@H](O)[C@H](Oc2ccc(-c3ccncc3)nc2F)SC[C@H]1O [Example 22, 2-Fluoro-6-(4-pyridinyl)-3-pyridinyl 5-thio-β-D-xylopyranoside] | 100 |
| Cc1cncc(-c2ccc(O[C@@H]3SC[C@@H](O)[C@H](O)[C@H]3O)cn2)c1 [Example 142, 6-(5-Methyl-3-pyridinyl)-3-pyridinyl 5-thio-β-D-xylopyranoside] | 97 |
| O[C@@H]1[C@@H](O)[C@H](Oc2ccc(-c3ccncc3)nc2)SC[C@H]1O [Example 122, 6-(4-Pyridinyl)-3-pyridinyl 5-thio-β-D-xylopyranoside] | 93 |
